Measurements from paper PMC5394417, “Investigating the molecular mechanism of positive and negative allosteric modulators in the calcium-sensing receptor dimer” (Scientific Reports, 2017).

Experiments:
Format in all cases: cell-based
HA-CaSR WT = target: T1, HA-CaSR WT (Rattus norvegicus, UniProt P48442); test: IP-One assay (IP1 accumulation, Gq signaling), HEK293T transiently transfected
T1 construct: mGluR5 signal peptide (N); expressed in transfected cells; host or cells: HEK293T
T1 sequence (P48442 20-1079): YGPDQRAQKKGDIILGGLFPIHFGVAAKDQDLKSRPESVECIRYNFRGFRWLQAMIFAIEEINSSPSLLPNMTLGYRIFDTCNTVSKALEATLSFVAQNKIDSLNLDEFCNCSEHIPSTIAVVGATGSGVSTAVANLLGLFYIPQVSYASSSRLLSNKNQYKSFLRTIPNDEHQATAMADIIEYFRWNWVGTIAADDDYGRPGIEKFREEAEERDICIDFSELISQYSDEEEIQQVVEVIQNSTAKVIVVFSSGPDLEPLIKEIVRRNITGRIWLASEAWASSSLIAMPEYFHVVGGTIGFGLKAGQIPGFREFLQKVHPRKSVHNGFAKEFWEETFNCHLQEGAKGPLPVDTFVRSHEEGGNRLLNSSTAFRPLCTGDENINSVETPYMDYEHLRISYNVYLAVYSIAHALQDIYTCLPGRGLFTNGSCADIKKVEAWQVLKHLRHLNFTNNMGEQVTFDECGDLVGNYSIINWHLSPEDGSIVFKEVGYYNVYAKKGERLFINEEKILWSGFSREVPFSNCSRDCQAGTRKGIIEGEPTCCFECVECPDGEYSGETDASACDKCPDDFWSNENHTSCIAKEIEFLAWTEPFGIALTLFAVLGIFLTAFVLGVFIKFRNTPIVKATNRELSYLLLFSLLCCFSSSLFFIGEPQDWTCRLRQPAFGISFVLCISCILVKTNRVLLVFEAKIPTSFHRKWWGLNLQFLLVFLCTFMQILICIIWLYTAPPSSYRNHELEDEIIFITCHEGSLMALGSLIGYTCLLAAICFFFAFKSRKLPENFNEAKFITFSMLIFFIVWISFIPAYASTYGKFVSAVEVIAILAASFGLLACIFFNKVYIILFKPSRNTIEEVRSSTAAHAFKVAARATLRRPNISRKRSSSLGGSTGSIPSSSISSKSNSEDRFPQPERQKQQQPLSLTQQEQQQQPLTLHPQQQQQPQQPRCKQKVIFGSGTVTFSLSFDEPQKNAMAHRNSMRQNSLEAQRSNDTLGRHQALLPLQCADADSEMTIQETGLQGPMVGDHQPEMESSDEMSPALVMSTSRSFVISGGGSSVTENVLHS
Description: (§1) Human embryonic kidney (HEK) 293T cells were cultured in DMEM supplemented with 10% dFBS and 1% P/S at 37 °C and 5% CO2. 48 h prior to assay, transient transfection was performed using Lipofectamine 2000 as the transfection reagent. White opaque 96-well culture plates (PerkinElmer, Waltham, MA, USA) were used for the ELISA and the TR-FRET dimerization assay, while clear tissue culture treated 96-well plates (Corning, Corning, NY, USA) were used for the IP-One assay. Both plate types were coated with poly-D-lysine before addition of cells and transfection mix. 0.25 μl/well of Lipofectamine 2000 were diluted in 25 μl/well of Opti-MEM and incubated at room temperature (RT) for 5 min. 0.03 μg/well of DNA was diluted in 25 μl/well of Opti-MEM, and subsequently mixed with the Lipofectamine 2000 dilution and incubated 20 min at RT before addition to the plates. Cell suspensions of 170.000 HEK293T cells/mL were prepared in complete growth medium and 100 μl/well (17.000 cells/well) was added to the plates, which were incubated for 48 h at 37 °C and 5% CO2 before performing assays.
(§2) Functional activity was measured using the IP-One assay, which is an IP1 accumulation assay. For agonist testing, ligands were prepared in final concentrations in ligand buffer (HBSS, 20 mM HEPES, pH 7.4 supplemented with 20 mM LiCl). Cells were washed once with 100 μl/well of assay buffer (HBSS, 20 mM HEPES, pH 7.4) and 50 μl/well of agonist solution was added after which plates were incubated at 37 °C for 30 min. Subsequently, ligand solutions were removed and cells were washed with 100 μl/well of assay buffer. Cell lysis was performed by addition of 30 μl/well of IP-One Conjugate & Lysis Buffer (Cisbio Bioassays, Codolet, France) and plates were incubated at RT for 30 min. Afterwards, 30 μl/well of assay buffer was added to dilute the cell lysate. 10 μl/well of cell lysate was transferred from the 96-well plate to a 384-well Optiplate and 10 μl/well of detection solution (Assay buffer + 2.5% of anti-IP1 antibody cryptate Terbium conjugate + 2.5% IP1-d2 conjugate (Cisbio Bioassays, Codolet, France)) was also added. The 384-well plate was incubated for 1 h at RT in dark before being measured on an EnVision plate reader (PerkinElmer, Waltham, MA, USA). Upon excitation at 340 nm, emission at 615 nm and 665 nm was measured, and the FRET ratio (665 nm/615 nm) was converted to IP1 concentrations by interpolating values from an IP1 standard curve generated from a provided IP1 calibrator (Cisbio Bioassays, Codolet, France). When testing allosteric modulators, cells were pre-incubated for 30 min at 37 °C with 50 μl/well of ligand buffer supplemented with allosteric modulator and a final concentration of 1% DMSO. Afterwards, the buffer solution was removed and 50 μl/well of agonist solution in ligand buffer supplemented with allosteric modulator and a final concentration of 1% DMSO was added. Plates were incubated for 30 min at 37 °C followed by one wash in 100 μl/well of assay buffer. Cell lysis and detection was performed as described above.

myc-CaSR-F801A = target: T2, myc-CaSR-F801A (Rattus norvegicus, UniProt P48442, F801A); test: IP-One assay, co-expression with pEGFPN1 in HEK293T; settings: concentrations up to 45 mM Ca^2+
T2 construct: mGluR5 signal peptide (N); expressed in transfected cells; host or cells: HEK293T
Description: as §1, with “Cell suspensions of 170.000 HEK293T cells/mL were prepared in complete growth medium and 100 μl/well (17.000 cells/well) was added to the plates, which were incubated for 48 h at 37 °C and 5% CO2 before performing assays.” left out
Functional activity was measured using the IP-One assay, which is an IP1 accumulation assay. […] The 384-well plate was incubated for 1 h at RT in dark before being measured on an EnVision plate reader (PerkinElmer, Waltham, MA, USA). Upon excitation at 340 nm, emission at 615 nm and 665 nm was measured, and the FRET ratio (665 nm/615 nm) was converted to IP1 concentrations by interpolating values from an IP1 standard curve generated from a provided IP1 calibrator (Cisbio Bioassays, Codolet, France). […]

HA-CaSR WT + myc CaSR-WT = target: T3, HA-CaSR WT + myc CaSR-WT (Rattus norvegicus, UniProt P48442); test: IP-One assay, co-expression 1:1 in HEK293T
T3 construct: mGluR5 signal peptide (N); expressed in transfected cells; host or cells: HEK293T
T3 sequence (P48442 20-1079) 1: T1 sequence (P48442 20-1079)
T3 sequence (P48442 20-1079) 2: T1 sequence (P48442 20-1079)
Description: as §1
as §2, with “Afterwards, the buffer solution was removed and 50 μl/well of agonist solution in ligand buffer supplemented with allosteric modulator and a final concentration of 1% DMSO was added. Plates were incubated for 30 min at 37 °C followed by one wash in 100 μl/well of assay buffer. Cell lysis and detection was performed as described above.” left out

[1] = target: T4, S170A/E837A:F801A heterodimer (Rattus norvegicus, UniProt P48442, E837A/F801A/S170A); test: IP-One trans-activation assay, co-expression 1:1 in HEK293T
T4 construct: mGluR5 signal peptide (N); expressed in transfected cells; host or cells: HEK293T
Description: as §1, §2

T4 sequence (P48442 20-1079 S170A/E837A): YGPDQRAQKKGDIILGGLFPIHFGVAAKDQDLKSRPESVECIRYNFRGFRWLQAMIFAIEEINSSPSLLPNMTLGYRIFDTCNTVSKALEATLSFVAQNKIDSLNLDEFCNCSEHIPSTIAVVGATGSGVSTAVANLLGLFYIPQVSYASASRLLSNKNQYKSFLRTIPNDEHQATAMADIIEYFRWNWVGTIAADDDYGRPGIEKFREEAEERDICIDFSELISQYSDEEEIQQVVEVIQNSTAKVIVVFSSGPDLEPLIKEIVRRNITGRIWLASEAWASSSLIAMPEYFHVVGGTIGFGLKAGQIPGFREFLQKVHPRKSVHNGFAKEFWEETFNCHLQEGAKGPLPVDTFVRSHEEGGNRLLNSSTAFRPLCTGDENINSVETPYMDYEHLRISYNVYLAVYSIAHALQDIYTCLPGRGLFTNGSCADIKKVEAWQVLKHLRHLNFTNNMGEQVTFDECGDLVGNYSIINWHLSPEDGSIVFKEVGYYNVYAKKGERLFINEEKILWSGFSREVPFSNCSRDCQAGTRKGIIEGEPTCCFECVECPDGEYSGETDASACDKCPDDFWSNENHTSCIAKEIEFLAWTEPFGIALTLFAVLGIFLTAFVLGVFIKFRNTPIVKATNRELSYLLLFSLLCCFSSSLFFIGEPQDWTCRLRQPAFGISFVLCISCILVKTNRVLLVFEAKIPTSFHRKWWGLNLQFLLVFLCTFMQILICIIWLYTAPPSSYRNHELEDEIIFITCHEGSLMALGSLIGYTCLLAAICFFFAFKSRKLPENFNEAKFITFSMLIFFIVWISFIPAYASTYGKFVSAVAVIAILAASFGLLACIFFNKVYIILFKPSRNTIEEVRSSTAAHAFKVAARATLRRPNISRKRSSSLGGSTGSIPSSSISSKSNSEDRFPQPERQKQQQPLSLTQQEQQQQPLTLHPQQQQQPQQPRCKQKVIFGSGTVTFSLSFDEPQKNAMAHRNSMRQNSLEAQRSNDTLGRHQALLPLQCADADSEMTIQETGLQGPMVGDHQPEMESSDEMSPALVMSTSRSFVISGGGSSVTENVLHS
T4 sequence (P48442 20-1079 F801A): as the sequence (P48442 20-1079 S170A/E837A) above, with A151S, F782A, A818E counted along it
T2 sequence (P48442 20-1079 F801A): as the sequence (P48442 20-1079 S170A/E837A) above, with A151S, F782A, A818E counted along it

SMILES | EC50 (HA-CaSR WT; Ca^2+ alone, Table 1) [mM] | Hill coefficient ± S.E.M. (HA-CaSR WT; Ca^2+ alone, Table 1) | pEC50 ± S.E.M. (HA-CaSR WT; Ca^2+ alone, Table 1) | EC50 (HA-CaSR WT; Ca^2+ alone, Table 3) [mM] | pEC50 ± S.E.M. (HA-CaSR WT; Ca^2+ alone, Table 3) | Max ± S.E.M. (HA-CaSR WT; Ca^2+ alone, normalized to maximum response of WT CaSR, Table 3) | EC50 (HA-CaSR WT; Ca^2+ with 1 μM NPS R-568) [mM] | pEC50 ± S.E.M. (HA-CaSR WT; Ca^2+ with 1 μM NPS R-568) | Max ± S.E.M. (HA-CaSR WT; Ca^2+ with 1 μM NPS R-568, normalized to maximum response with Ca^2+ alone for the construct) [%] | EC50 (HA-CaSR WT; Ca^2+ with 5 μM NPS 2143) [mM] | pEC50 ± S.E.M. (HA-CaSR WT; Ca^2+ with 5 μM NPS 2143) | Max ± S.E.M. (HA-CaSR WT; Ca^2+ with 5 μM NPS 2143, normalized to maximum response with Ca^2+ alone for the construct) [%] | Max ± S.E.M. (HA-CaSR WT; normalized to maximum response of WT CaSR, Table 1) [%] | functional response to Ca^2+ (myc-CaSR-F801A) | EC50 (HA-CaSR WT + myc CaSR-WT; Ca^2+ alone) [mM] | Hill coefficient ± S.E.M. (HA-CaSR WT + myc CaSR-WT; Ca^2+ alone) | pEC50 ± S.E.M. (HA-CaSR WT + myc CaSR-WT; Ca^2+ alone) | Max ± S.E.M. (HA-CaSR WT + myc CaSR-WT; normalized to maximum response of WT CaSR) [%] | potentiation of Ca^2+-mediated response ([1]; S170A/E837A:F801A heterodimer, 0.05, 0.1 and 1 μM NPS R-568) | effect on Ca^2+-mediated response ([1]; S170A/E837A:F801A heterodimer, highest tested concentration of NPS R-568 (1 μM))
[Ca+2] [Ca^2+] | 3.77 | 3.62 ± 0.48 | 2.42 ± 0.01 | 3.21 | 2.49 ± 0.01 | ≈100% | 1.28 | 2.89 ± 0.01 | 110 ± 11 | 8.4 | 2.08 ± 0.01 | 72 ± 5.6 | 100 | non-functional | 2.98 | 4.24 ± 0.19 | 2.53 ± 0.02 | 100 |  | 
COc1cccc([C@@H](C)NCCCc2ccccc2Cl)c1.Cl [NPS R-568, NPS R-568 hydrochloride] |  |  |  |  |  |  |  |  |  |  |  |  |  |  |  |  |  |  | no potentiation was observed | inhibited
